Measured values reported in EPA's ToxValDB 9.5 (doi:10.2903/j.efsa.2008.148r).
≈ marks a conversion by molar mass, not a printed value.

Assays:
[1] = system: Lepidium sativum; details: acute; duration: 14 days; growth
[2] = system: Folsomia candida; details: chronic/long-term; duration: 28 days; reproduction
[3] = system: Mus musculus; details: acute; oral; mortality
[4] = system: Oncorhynchus mykiss
[5] = system: Apis mellifera; details: acute; duration: 48 hours; oral; unspecified; mortality
[6] = system: Canidae; details: subchronic; duration: 90 days; oral; Dog Other; clinical signs
[7] = system: Macromiidae; details: acute; duration: 72 hours; biomass
[8] = system: Colinus virginianus
[9] = system: Avena sativa; details: acute; duration: 14 days; growth
[10] = system: Rattus norvegicus
[11] = system: Daphnia magna; details: chronic/long-term; duration: 21 days; reproduction
[12] = system: Coturnix japonica; details: acute; oral; mortality
[13] = system: Oryctolagus sp.; details: reproduction developmental; body weight
[14] = system: Tagia sp.
[15] = system: Poecilus cupreus; test: LR50; higher = less toxic; details: not reported; mortality

## O=[N+]([O-])/N=C1\NCCN1Cc1ccc(Cl)nc1 [Imidacloprid]
[1]
  NOEC: 10 mg/kg
[2]
  NOEC: 1.25 mg/kg
[3]
  LD50: 131 mg/kg-day
[4]; acute, duration: 96 hours, mortality
  LC50: 211 µg/mL (≈ 825 µM)
[4]; chronic/long-term, duration: 91 days, time to swim up
  NOEC: 9.02 mg/L
[5]
  LD50: 0.0037 µg/piece
[6]
  NOAEL: 7.8 mg/kg-day
[7]
  NOEC: 10 mg/L
[8]; reproduction developmental
  NOAEL: 9.3 mg/kg-day
[8]; short-term, oral, diet
  NOEL: 29.4 mg/kg-day
[9]
  NOEC: ≥ 100 mg/kg
[10]; chronic
  NOAEL: 17 mg/kg-day
[10]; chronic, duration: 2 years, histopathology: nonneoplastic
  NOAEL: 5.7 mg/kg-day
[10]; subchronic, duration: 90 days, oral, histopathology: nonneoplastic
  NOAEL: 9.3 mg/kg-day
[11]
  NOEC: 1.8 mg/L
[12]
  LD50: 31 mg/kg-day
[13]
  NOAEL: 8 mg/kg-day
[14]; acute, duration: 14 days, mortality
  LC50: 10.7 mg/kg
[14]; chronic/long-term, duration: 56 days, reproduction
  NOEC: > 0.178 mg/kg
[15]
  LR50: 0.136 mg/kg
